The source of these data is ChEMBL document CHEMBL4359920 (Eur J Med Chem, 2019).

Data set [1] concerns HCT-116. The experiment in a line: Antiproliferative activity against human HCT116 cells assessed as reduction in cell viability after 72 hrs by MTT assay. In kind it is functional, cell-based. The conditions noted are these: HCT-116, 72 h. Background: Formazan colour is commonly taken as a measure of viable cells.
The test system of data set [2] is MDA-MB-231. The experiment in a line: Antiproliferative activity against human MDA-MB-231 cells assessed as reduction in cell viability after 72 hrs by MTT assay. The format is functional, cell-based. Conditions: MDA-MB-231, 72 h; call rule not given here.
The test system of data set [3] is A549. The experiment in a line: Antiproliferative activity against human A549 cells assessed as reduction in cell viability after 72 hrs by MTT assay. The format is functional, cell-based. The conditions noted are these: A549, 72 h.
The test system of data set [4] is SK-OV-3. The experiment in a line: Antiproliferative activity against human SKOV3 cells assessed as reduction in cell viability after 72 hrs by MTT assay. The format is functional, cell-based. The conditions noted are these: SK-OV-3, 72 h.
The target of data set [5] is Histone deacetylase 3/Nuclear receptor corepressor 2 (HDAC3/NCoR2) (Homo sapiens, UniProt O15379). The experiment in a line: Inhibition of human recombinant full length C-terminal His-tagged HDAC3 (1 to 428 residues)/N-terminal GST-tagged NCOR2 (395 to 489 residues) expressed in baculovirus infected Sf9 cells using Ac-peptide-AMC as substrate preincubated for 15 mins followed by substrate addition and measured after 60 mins by fluorescence based assay.
Chain of Histone deacetylase 3/Nuclear receptor corepressor 2 (HDAC3/NCoR2) (O15379 whole entry, the tested form may be a part): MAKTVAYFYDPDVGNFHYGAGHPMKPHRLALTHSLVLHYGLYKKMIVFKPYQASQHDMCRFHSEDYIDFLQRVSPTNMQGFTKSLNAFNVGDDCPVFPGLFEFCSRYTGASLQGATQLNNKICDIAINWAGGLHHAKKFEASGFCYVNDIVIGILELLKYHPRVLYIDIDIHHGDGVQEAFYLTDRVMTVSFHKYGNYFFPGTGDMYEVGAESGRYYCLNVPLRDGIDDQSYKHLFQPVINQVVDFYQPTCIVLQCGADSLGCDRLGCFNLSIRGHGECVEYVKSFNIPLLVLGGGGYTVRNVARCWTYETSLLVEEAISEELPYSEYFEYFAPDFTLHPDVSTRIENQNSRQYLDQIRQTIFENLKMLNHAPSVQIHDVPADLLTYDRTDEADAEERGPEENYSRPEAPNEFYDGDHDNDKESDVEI
Chain of Histone deacetylase 3/Nuclear receptor corepressor 2 (HDAC3/NCoR2) (Q9Y618 whole entry, further chain, the tested form may be a part): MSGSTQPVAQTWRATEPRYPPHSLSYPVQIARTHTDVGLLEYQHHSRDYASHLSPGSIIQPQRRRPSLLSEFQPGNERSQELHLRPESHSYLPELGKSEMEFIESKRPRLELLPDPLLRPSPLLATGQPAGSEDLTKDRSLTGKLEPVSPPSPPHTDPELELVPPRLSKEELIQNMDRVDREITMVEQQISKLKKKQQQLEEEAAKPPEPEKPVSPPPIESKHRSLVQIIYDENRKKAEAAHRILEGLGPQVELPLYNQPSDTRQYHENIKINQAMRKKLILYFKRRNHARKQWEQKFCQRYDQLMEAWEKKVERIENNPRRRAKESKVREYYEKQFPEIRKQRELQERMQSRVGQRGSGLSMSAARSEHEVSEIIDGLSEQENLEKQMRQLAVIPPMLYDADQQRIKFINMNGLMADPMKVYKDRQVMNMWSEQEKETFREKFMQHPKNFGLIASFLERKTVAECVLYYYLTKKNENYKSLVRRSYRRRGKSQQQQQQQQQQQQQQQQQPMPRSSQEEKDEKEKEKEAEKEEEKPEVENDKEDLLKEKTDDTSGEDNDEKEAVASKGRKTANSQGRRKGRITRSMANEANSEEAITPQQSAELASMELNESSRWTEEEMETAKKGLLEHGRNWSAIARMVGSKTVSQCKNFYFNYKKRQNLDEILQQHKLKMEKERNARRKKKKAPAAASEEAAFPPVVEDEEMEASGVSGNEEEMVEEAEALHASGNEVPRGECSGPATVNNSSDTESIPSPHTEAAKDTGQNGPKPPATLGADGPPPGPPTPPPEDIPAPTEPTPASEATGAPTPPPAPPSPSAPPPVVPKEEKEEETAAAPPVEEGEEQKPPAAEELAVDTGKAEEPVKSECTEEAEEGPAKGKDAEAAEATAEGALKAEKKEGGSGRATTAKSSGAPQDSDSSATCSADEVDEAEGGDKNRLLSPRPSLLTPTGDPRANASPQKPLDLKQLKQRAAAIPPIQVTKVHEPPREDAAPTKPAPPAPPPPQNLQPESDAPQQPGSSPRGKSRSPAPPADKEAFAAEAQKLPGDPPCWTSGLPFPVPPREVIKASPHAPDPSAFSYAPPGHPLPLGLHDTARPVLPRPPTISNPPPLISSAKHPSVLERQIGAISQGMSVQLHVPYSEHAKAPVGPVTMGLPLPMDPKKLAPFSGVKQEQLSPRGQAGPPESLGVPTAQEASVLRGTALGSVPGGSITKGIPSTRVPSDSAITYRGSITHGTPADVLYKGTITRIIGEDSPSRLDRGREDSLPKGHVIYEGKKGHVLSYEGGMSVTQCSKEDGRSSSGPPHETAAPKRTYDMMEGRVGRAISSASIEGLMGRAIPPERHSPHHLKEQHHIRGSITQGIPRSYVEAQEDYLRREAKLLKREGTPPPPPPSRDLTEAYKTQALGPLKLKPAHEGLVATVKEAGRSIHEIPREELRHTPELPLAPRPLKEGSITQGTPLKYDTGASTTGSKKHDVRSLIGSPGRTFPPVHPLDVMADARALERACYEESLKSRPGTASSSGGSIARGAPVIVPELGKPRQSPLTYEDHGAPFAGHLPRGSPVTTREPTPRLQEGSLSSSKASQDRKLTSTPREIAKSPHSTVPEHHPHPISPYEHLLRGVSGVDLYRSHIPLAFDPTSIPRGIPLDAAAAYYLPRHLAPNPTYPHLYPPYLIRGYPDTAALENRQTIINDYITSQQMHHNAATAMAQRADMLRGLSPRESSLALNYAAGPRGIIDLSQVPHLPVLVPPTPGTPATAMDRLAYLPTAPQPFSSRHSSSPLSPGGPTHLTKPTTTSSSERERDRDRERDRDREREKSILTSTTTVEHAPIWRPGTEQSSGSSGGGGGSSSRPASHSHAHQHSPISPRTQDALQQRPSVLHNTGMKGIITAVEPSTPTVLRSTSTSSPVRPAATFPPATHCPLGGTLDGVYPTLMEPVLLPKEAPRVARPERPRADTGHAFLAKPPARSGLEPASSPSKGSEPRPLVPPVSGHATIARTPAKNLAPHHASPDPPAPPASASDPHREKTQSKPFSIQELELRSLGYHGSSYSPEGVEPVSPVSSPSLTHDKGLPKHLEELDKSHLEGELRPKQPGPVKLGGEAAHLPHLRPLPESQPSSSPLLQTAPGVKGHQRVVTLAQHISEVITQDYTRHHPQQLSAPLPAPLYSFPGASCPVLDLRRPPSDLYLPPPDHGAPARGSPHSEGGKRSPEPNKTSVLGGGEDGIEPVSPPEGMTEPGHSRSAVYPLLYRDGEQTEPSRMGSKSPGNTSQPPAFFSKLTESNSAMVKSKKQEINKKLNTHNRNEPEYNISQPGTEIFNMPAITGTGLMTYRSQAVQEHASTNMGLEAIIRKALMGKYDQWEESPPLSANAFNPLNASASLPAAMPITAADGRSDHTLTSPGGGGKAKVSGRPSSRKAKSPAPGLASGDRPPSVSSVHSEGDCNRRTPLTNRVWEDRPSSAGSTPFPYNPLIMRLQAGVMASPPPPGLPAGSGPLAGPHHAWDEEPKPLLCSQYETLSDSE

In data set [6] the target is T1, Protein deacetylase HDAC6 (Homo sapiens, UniProt Q9UBN7).
T1 sequence (Q9UBN7 whole entry): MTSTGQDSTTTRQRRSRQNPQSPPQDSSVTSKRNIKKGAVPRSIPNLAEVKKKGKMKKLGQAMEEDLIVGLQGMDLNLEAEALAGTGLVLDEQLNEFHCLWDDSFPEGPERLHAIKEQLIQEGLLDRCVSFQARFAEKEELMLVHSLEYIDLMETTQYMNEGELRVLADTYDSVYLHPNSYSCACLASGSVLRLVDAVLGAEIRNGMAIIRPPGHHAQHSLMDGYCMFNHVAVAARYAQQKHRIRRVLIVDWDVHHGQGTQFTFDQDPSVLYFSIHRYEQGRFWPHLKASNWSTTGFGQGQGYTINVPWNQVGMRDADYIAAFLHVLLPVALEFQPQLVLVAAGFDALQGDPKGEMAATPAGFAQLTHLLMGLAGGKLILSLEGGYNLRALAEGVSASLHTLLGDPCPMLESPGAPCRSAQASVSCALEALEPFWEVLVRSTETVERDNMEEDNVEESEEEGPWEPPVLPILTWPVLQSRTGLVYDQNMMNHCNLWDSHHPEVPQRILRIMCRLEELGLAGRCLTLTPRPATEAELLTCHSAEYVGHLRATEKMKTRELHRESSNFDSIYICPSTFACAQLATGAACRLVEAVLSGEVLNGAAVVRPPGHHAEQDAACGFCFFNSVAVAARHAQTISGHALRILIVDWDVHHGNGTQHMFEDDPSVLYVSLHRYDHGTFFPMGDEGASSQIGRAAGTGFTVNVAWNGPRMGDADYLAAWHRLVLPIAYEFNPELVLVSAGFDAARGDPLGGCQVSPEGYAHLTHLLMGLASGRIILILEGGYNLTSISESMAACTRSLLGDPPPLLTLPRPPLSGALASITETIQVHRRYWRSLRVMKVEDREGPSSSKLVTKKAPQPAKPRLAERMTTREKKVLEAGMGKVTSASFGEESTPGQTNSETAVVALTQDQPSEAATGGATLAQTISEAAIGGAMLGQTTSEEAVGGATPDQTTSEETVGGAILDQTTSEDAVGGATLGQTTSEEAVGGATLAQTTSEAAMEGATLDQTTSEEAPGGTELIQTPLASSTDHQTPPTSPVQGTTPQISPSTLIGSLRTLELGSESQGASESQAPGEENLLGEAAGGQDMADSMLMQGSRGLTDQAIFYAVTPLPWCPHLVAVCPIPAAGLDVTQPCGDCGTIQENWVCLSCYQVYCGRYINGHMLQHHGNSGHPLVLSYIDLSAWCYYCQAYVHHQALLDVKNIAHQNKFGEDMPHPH
The experiment in a line: Inhibition of recombinant human HDAC6 using Ac-peptide-AMC as substrate preincubated for 15 mins followed by substrate addition and measured after 60 mins by fluorescence based assay. The conditions noted are these: for inhibition (INH): human, 1 h.

Data set [7] addresses T2, Histone deacetylase 8 (Homo sapiens, UniProt Q9BY41).
T2 sequence (Q9BY41 whole entry): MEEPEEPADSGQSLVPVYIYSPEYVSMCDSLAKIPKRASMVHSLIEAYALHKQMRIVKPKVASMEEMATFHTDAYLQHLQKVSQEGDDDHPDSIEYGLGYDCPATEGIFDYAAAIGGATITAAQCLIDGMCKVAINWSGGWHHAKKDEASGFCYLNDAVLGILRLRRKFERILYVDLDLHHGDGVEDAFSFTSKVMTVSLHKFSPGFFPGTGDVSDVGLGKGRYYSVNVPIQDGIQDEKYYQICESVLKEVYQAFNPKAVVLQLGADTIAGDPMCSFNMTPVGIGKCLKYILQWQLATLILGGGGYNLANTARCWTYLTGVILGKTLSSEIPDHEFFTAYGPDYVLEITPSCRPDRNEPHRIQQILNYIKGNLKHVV
As to the kind of experiment: Inhibition of full length C-terminal His-tagged human HDAC8 expressed in baculovirus infected Sf9 cells using Ac-peptide-AMC as substrate preincubated for 15 mins followed by substrate addition and measured after 240 mins by fluorescence based assay.

Data set [8] has as its target Histone deacetylase 2 (Homo sapiens, UniProt Q92769). As to the kind of experiment: biochemical. In kind it is cell-based, Sf9.
Description: Inhibition of recombinant full length human HDAC2 expressed in baculovirus infected Sf9 cells using Ac-peptide-AMC as substrate preincubated for 15 mins followed by substrate addition and measured after 60 mins by fluorescence based assay
Data set [9] addresses Histone deacetylase 1 (Homo sapiens, UniProt Q13547). The experiment in a line: Inhibition of recombinant full length C-terminal FLAG/His-tagged human HDAC1 expressed in baculovirus infected Sf9 cells using Ac-peptide-AMC as substrate preincubated for 15 mins followed by substrate addition and measured after 60 mins by fluorescence based assay.
The species named for data set [10] is Homo sapiens. As to the kind of experiment: Selectivity ratio of IC50 for inhibition of human recombinant full length C-terminal His-tagged HDAC3 (1 to 428 residues)/N-terminal GST-tagged NCOR2 (395 to 489 residues) expressed in baculovirus infected Sf9 cells to IC50 for inhibition recombinant full length C-terminal FLAG/His-tagged human HDAC1 expressed in baculovirus infected Sf9 cells.

The species named for data set [11] is Homo sapiens. As to the kind of experiment: Selectivity ratio of IC50 for inhibition of recombinant full length human HDAC2 expressed in baculovirus infected Sf9 cells to IC50 for inhibition of recombinant full length C-terminal FLAG/His-tagged human HDAC1 expressed in baculovirus infected Sf9 cells.
Data set [12] deals with Histone deacetylase (Homo sapiens) (UniProt Q13547+O15379+Q9UBN7+Q92769+Q9UQL6+Q8WUI4+Q9BY41+Q96DB2+P56524+Q9UKV0+Q969S8). The experiment in a line: Inhibition of HDAC in human HCT116 cells assessed as increase in histone H3 acetylation after 24 hrs by Western blot analysis. The format is cell-based. A general note: Immunoblotting shows a protein as a band on a membrane.

Data set [13] has as its target T1, Protein deacetylase HDAC6. As to the kind of experiment: Inhibition of HDAC6 in human HCT116 cells assessed as alpha tubulin acetylation at 0.1 to 10000 nM after 24 hrs by Western blot analysis. In kind it is cell-based. The conditions noted are these: 10 µM.

The IC50 is the concentration that gives 50% inhibition.

Chain of Histone deacetylase 2 (Q92769 whole entry): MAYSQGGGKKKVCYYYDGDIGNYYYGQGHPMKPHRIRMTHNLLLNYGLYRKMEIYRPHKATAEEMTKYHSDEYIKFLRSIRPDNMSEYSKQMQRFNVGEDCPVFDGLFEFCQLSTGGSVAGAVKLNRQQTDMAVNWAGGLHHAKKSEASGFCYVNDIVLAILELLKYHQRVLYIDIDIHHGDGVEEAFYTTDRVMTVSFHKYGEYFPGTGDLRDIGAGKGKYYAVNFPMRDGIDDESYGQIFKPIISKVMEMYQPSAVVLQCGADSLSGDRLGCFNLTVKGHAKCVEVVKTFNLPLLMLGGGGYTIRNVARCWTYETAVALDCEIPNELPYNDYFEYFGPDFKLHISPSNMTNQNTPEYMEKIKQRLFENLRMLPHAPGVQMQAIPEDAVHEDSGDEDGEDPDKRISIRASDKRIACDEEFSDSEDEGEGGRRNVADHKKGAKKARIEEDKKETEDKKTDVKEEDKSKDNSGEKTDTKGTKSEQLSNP
Chain of Histone deacetylase 1 (Q13547 whole entry, the tested form may be a part): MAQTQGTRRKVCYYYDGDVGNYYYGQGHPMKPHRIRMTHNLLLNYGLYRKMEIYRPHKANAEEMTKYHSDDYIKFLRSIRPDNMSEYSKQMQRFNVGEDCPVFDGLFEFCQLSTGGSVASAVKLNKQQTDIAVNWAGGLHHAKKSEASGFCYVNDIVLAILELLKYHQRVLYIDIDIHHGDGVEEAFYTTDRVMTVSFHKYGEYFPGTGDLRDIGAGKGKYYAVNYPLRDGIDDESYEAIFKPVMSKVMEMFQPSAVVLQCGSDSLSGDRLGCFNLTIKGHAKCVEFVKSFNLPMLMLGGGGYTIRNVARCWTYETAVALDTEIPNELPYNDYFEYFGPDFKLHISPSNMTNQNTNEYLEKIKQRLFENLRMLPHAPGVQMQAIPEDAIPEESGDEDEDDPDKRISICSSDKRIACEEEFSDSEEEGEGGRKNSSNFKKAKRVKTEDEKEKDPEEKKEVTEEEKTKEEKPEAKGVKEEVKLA

`CCCCCCCC(=O)SCC/C=C(\F)[C@@H]1CC(=O)NCc2nc(cs2)C2=N[C@@](C)(CS2)C(=O)N[C@@H](C(C)C)C(=O)N1`: the IC50 in data set [1] was 6.62 µM; in data set [2] it was greater than 10 µM; in [3] it was greater than 10 µM; in data set [4], greater than 10 µM.

Take `CCCCCCCC(=O)SCC/C=C(\F)[C@@H]1CC(=O)NCc2nc(cs2)C2=N[C@@](C)(CS2)C(=O)N[C@@H](C(C)C)C(=O)O1`: the half-inhibitory concentration (IC50) in data set [1] was 0.81 µM; in data set [2], 3.85 µM; in [5] it was 2.3 µM; in [3], 0.52 µM; in [6], greater than 5 µM; in data set [4], 0.24 µM. The “inhibition (INH)” value in data set [6] is “Dose-dependent effect”.

Turning to `CC(C)[C@@H]1NC(=O)[C@]2(C)CSC(=N2)c2csc(n2)CNC(=O)C[C@H](/C(F)=C/CCS)OC1=O`, the concentration for half-maximal inhibition (IC50) in data set [7] is 0.378 µM; in data set [8], 0.0955 µM; in [5], 0.0514 µM; in data set [9], 0.0785 µM; in [6] it was 1.83 µM. Besides, the “inhibition (INH)” value in data set [6] is “Dose-dependent effect”.

As to `CCCCCCCC(=O)SCC(F)(F)/C=C/[C@@H]1CC(=O)NCc2nc(cs2)C2=N[C@@](C)(CS2)C(=O)N[C@@H](C(C)C)C(=O)O1`, the 50% inhibitory concentration (IC50) in [1], in data set [2], in data set [3] and in [4] was greater than 10 µM each time.

Take `CCCCCCCC(=O)SCC/C=C/[C@@H]1CC(=O)NCc2nc(cs2)C2=N[C@@](C)(CS2)C(=O)N[C@@H](C(C)C)C(=O)O1` [LARGAZOLE]: the IC50 was 0.044 to 0.11 µM in [1], 4.75 µM in [2], 0.46 µM in [3] and 0.25 µM in data set [4]. In addition, the “inhibition (INH)” value in data set [6] was “Dose-dependent effect”.

In the case of `CC(C)[C@@H]1NC(=O)[C@]2(C)CSC(=N2)c2csc(n2)CNC(=O)C(F)(F)[C@@H](/C=C/CCS)NC1=O`, the IC50 in [7] worked out at 0.166 µM; in data set [8] it was 0.00925 µM; in data set [5] it was 0.00743 µM; in [9], 0.00631 µM; in data set [6], 1.41 µM. In addition, in data set [6], the “inhibition (INH)” value is reported as “Dose-dependent effect”.

For `CCCCCCCC(=O)SCC/C=C/[C@H]1NC(=O)[C@H](C(C)C)NC(=O)[C@]2(C)CSC(=N2)c2csc(n2)CNC(=O)C1(F)F`, the IC50 in data set [1], in data set [2], in data set [3] and in data set [4] was greater than 10 µM throughout.

As to `CCCCCCCC(=O)SCC/C=C(\F)[C@H]1CC(=O)NCc2nc(cs2)C2=N[C@@](C)(CS2)C(=O)N[C@@H](C(C)C)C(=O)O1`, the IC50 in data set [1], in data set [2], in data set [3] and in data set [4] was greater than 10 µM each time.

`CC(C)[C@@H]1NC(=O)[C@]2(C)CSC(=N2)c2csc(n2)CNC(=O)C[C@@H](/C(F)=C/CCS)OC1=O`: the “inhibition (INH)” value in data set [6] is reported as “Dose-dependent effect”.

Take `CC(C)[C@@H]1NC(=O)[C@]2(C)CSC(=N2)c2csc(n2)CNC(=O)C[C@@H](/C=C(\F)CCS)OC1=O`: the IC50 came out at 0.00041 µM in data set [7]; 0.00246 µM in data set [8]; 0.0032 µM in data set [5]; 0.00046 µM in data set [9]; 0.0197 µM in data set [6]. Moreover, the “inhibition (INH)” value in [6] is reported as “Dose-dependent effect”.

In the case of `CC(C)[C@@H]1NC(=O)[C@]2(C)CSC(=N2)c2csc(n2)CNC(=O)C[C@@H](/C=C/C(F)(F)CS)OC1=O`, the IC50 in data set [7] worked out at 0.0441 µM; in [8] it was 0.0185 µM; in data set [5], 0.00821 µM; in [9], 0.0119 µM; in data set [6], 0.898 µM. Moreover, the Ratio IC50 in data set [10] and in [11] was 79 in each case. The “inhibition (INH)” value in data set [6] is “Dose-dependent effect”.

Take `O=C(CCCCCCC(=O)Nc1ccccc1)NO` [VORINOSTAT]: the “inhibition (INH)” value in [6] is “Dose-dependent effect”.

Consider `CCCCCCCC(=O)SCC/C(F)=C/[C@@H]1CC(=O)NCc2nc(cs2)C2=N[C@@](C)(CS2)C(=O)N[C@@H](C(C)C)C(=O)O1`, for which the IC50 in data set [1] was determined as 0.17 µM; in [2], 4.11 µM; in [3], 0.17 µM; in [4], 0.26 µM. For the same compound, in [12], the inhibition result is “Dose-dependent effect”. Also, the “inhibition (INH)” value in [13] is listed as “Not Active”.

Take `CC(C)[C@@H]1NC(=O)[C@]2(C)CSC(=N2)c2csc(n2)CNC(=O)C[C@@H](/C(F)=C/CCS)NC1=O`: the 50% inhibitory concentration (IC50) came out at 0.0271 µM in data set [7]; 0.00742 µM in data set [8]; 0.00853 µM in data set [5]; 0.0029 µM in [9]; 0.333 µM in data set [6]. For the same compound, the “inhibition (INH)” value in data set [6] was “Dose-dependent effect”.

As to `CC(C)[C@@H]1NC(=O)[C@]2(C)CSC(=N2)c2csc(n2)CNC(=O)C[C@@H](/C=C/CCS)OC1=O`, the “inhibition (INH)” value in data set [6] is “Dose-dependent effect”.
